From patent US5036055A, “Acylated derivatives of etoposide” (Bristol-Myers Company, priority 1989, dated 1991) come the findings set out here.

Values after ≈ are worked out from the molar mass of the structure shown. Where two headings read alike, the source gives them in different places.

One assay has as its system P388 leukemia. Kind of assay: in vivo antitumor activity against murine transplantable P388 leukemia. Also on record: species or system murine (female CDF1 mice). Here is the method:
Representative compounds of the present invention were evaluated for antitumor activity against murine transplantable P388 leukemia. Female CDF1 mice were inoculated intraperitoneally with 0.4 ml of diluted ascitic fluid containing 10^6 lymphocytic leukemia P388 cells. […] The percent increase of median survival time (MST) of treated animals over that of untreated control animals was determined and reported as % T/C. Compounds showing % T/C values of 125 or greater are considered to have significant antitumor activity. Table I presents the results of the in vivo evaluation; only the maximum % T/C and the dose giving the maximum effects are reported.

The next assay deals with B16-F10 murine melanoma. Kind of assay: in vitro cytotoxicity against B16-F10 murine melanoma (neutral red, 540 nm). The note with it: Mus musculus, 72 hours incubation. Type of assay: cell-based. On the procedure:
(§1) In vitro cytotoxicity of compounds of the present invention was evaluated against B16-F10 murine melanoma and Moser human colon carcinoma cell lines. Exponentially growing B16-F10 and Moser cells were harvested, counted and suspended in the culture medium at the concentrations of 1.5×10^4 and 3×10^4 cells/ml, respectively. Twenty-four hours after planting cell suspension (180 mcl) into wells of a 96-well microtiter plate, test materials (20 mcl) were added to the wells and the plates were incubated for 72 hours. The cytotoxic activities against the tumor cells were colorimetrically determined at 540 nm after staining viable cells with neutral red solution.

The test system of assay [1] is Moser human colon carcinoma. The experiment in a line: in vitro cytotoxicity against Moser human colon carcinoma (neutral red, 540 nm). Type of assay: cell-based. The following applies: 72 hours incubation. On the procedure:
as §1

[2] abbreviates: 120 mg/kg/day, i.p. single dose on day 1, CDF1 mice.
Setting [3] is: Mus musculus, P388, ip, 1200 h, read-out: % T/C MST.
The mark [4] stands for this setting: Mus musculus, P388, ip, 1200 h, 30 mg/kg/day, i.p. single dose on day 1, maximum % T/C at dose giving maximum effect, CDF1 mice, 50 days, read-out: % T/C MST.
Setting [5] is: Mus musculus, P388, ip, 1200 h, 120 mg/kg/day, i.p. single dose on day 1, maximum % T/C at dose giving maximum effect, CDF1 mice, 50 days, read-out: % T/C MST.

With `COc1cc([C@@H]2c3cc4c(cc3[C@@H](O[C@@H]3O[C@@H]5CO[C@@H](C)O[C@H]5[C@H](O)[C@H]3O)[C@H]3COC(=O)[C@H]23)OCO4)cc(OC)c1O` [Etoposide, etoposide], in the assay on P388 leukemia (setting [2]), the “Number of survivors/tested on day 50” value was 6/12. In addition, in the assay with P388 leukemia (setting [3]), the response vs control in vivo at 30 mg/kg worked out at 182% and the response vs control in vivo at 120 mg/kg is greater than 390%. The same molecule registered an IC50 with B16-F10 murine melanoma of 0.45 µg/mL (≈ 0.765 µM).

With `COc1cc([C@@H]2c3cc4c(cc3[C@@H](O[C@@H]3O[C@@H]5CO[C@@H](C)O[C@H]5[C@H](OC(C)=O)[C@H]3OC(C)=O)[C@H]3COC(=O)[C@H]23)OCO4)cc(OC)c1O` [Example 1, 2",3"-di-0-acetyl etoposide], in the assay with P388 leukemia (setting [4]), the response vs control in vivo at 30 mg/kg is 165%. The IC50 with B16-F10 murine melanoma was 1.3 µg/mL (≈ 1.93 µM); in assay [1], less than 0.8 µg/mL.

`COc1cc([C@@H]2c3cc4c(cc3[C@@H](O[C@@H]3O[C@@H]5CO[C@@H](C)O[C@H]5[C@H](O)[C@H]3OC(C)=O)[C@H]3COC(=O)[C@H]23)OCO4)cc(OC)c1O` [Example 3, 2"-0-acetyl etoposide]: in the assay on P388 leukemia (setting [4]), the response vs control in vivo at 30 mg/kg turned out to be 240%. Besides, the IC50 in the assay with B16-F10 murine melanoma came out at 1.6 µg/mL (≈ 2.54 µM); in assay [1] it was 1.1 µg/mL (≈ 1.74 µM).

Turning to `COc1cc([C@@H]2c3cc4c(cc3[C@@H](O[C@@H]3O[C@@H]5CO[C@@H](C)O[C@H]5[C@H](OC(C)=O)[C@H]3O)[C@H]3COC(=O)[C@H]23)OCO4)cc(OC)c1O` [Example 4, 3"-0-acetyl-etoposide], in the assay on P388 leukemia (setting [4]), the response vs control in vivo at 30 mg/kg was 210%. In addition, half-maximal inhibition in the assay with B16-F10 murine melanoma (IC50) required 1.4 µg/mL (≈ 2.22 µM).

`COc1cc([C@@H]2c3cc4c(cc3[C@@H](O[C@@H]3O[C@@H]5CO[C@@H](C)O[C@H]5[C@H](OC=O)[C@H]3OC=O)[C@H]3COC(=O)[C@H]23)OCO4)cc(OC)c1O` [Example 6, 2",3"-di-0-formyl etoposide]: in the assay with P388 leukemia (setting [2]), the “Number of survivors/tested on day 50” value is on record as 3/4. For the same molecule, the response vs control in vivo at 120 mg/kg with P388 leukemia (setting [5]) was greater than 500%. Also, the values for the IC50 (with B16-F10 murine melanoma; in assay [1]) were 2 µg/mL (≈ 3.1 µM) and 0.84 µg/mL (≈ 1.3 µM), respectively.

For `COc1cc([C@@H]2c3cc4c(cc3[C@@H](O[C@@H]3O[C@@H]5CO[C@@H](C)O[C@H]5[C@H](O)[C@H]3OC(=O)c3ccccc3)[C@H]3COC(=O)[C@H]23)OCO4)cc(OC)c1O` [Example 8, 2"-0-benzoyletoposide], in the assay with P388 leukemia (setting [5]), the response vs control in vivo at 120 mg/kg stood at 145%. In the assay with B16-F10 murine melanoma, this molecule gave an IC50 of 0.92 µg/mL (≈ 1.33 µM).

On to `COc1cc([C@@H]2c3cc4c(cc3[C@@H](O[C@@H]3O[C@@H]5CO[C@@H](C)O[C@H]5[C@H](OC(=O)c5ccccc5)[C@H]3O)[C@H]3COC(=O)[C@H]23)OCO4)cc(OC)c1O` [Example 9, 3"-0-Benzoyletoposide], for which the “Number of survivors/tested on day 50” value with P388 leukemia (60 mg/kg/day, i.p. single dose on day 1, CDF1 mice) is recorded as 1/4. The response vs control in vivo at 60 mg/kg in the assay with P388 leukemia (Mus musculus, P388, ip, 1200 h, 60 mg/kg/day, i.p. single dose on day 1, maximum % T/C at dose giving maximum effect, CDF1 mice, 50 days, read-out: % T/C MST) is 420%. The IC50 amounted to 0.17 µg/mL (≈ 0.245 µM) with B16-F10 murine melanoma and 0.83 µg/mL (≈ 1.2 µM) in assay [1].

With `COc1cc([C@@H]2c3cc4c(cc3[C@@H](O[C@@H]3O[C@@H]5CO[C@@H](C)O[C@H]5[C@H](OC(=O)c5ccccc5)[C@H]3OC(=O)c3ccccc3)[C@H]3COC(=O)[C@H]23)OCO4)cc(OC)c1O` [Example 10, 2",3"-0-di-benzoyletoposide], the response vs control in vivo at 120 mg/kg in the assay with P388 leukemia (setting [5]) was determined as 125%. This molecule displayed an IC50 in the assay with B16-F10 murine melanoma of 4.4 µg/mL (≈ 5.52 µM).

By IC50 is commonly meant the concentration at which inhibition is half-maximal. High values mean weaker potency, low ones greater potency.
